Results as given in patent publication US8193235B2, “Compositions and methods for establishing and maintaining stem cells in an undifferentiated state” (University of Kansas, priority 2009, dated 2012).

Legend:
c-Myc = assay: GSK-3β-mediated phosphorylation of c-Myc at T58; type: cell-based, mouse; settings: added in Gö6983 culture condition
E14 ES cells [1] = assay: ES cell differentiation on collagen IV and with retinoic acid; type: cell-based, mouse; settings: absence of LIF
Description: ES Cell Differentiation on Collagen-IV and With Retinoic Acid. To differentiate ES cells in monolayer culture on collagen IV, around 3×10^4 cells per well were transferred to collagen IV-coated 6-well plates (BD Biosciences, Franklin Lakes, N.J.) cultured for 5 days in ES differentiation medium containing DMEM (Invitrogen), 15% FBS (selected for endothelial differentiation, Stem Cell Technologies, Vancouver, BC), sodium pyruvate and L-glutamine with or without LIF and Gö6983, and were recovered by cell dissociation buffer (BD Biosciences, Franklin Lakes, N.J.). For culturing multiple passages with Gö6983 on collagen-IV, the recovered cells were again plated at a density of ˜3×10^4 cells per well and cultured again for 5 days. […] For RA-induced differentiation on monolayer culture, ES cells were treated with all-trans-retinoic acid (Sigma, St. Louis, Mo.) in ethanol at a concentration of 1 μM with or without LIF and Gö6983 for 6 days followed by study of expression of pluripotency markers (by immunofluorescence or western blot or RT-PCR analysis).

mESCs = assay: Gö6983-mediated inhibition of mESC differentiation in presence of pathway inhibitors; type: cell-based, mouse; settings: added to Gö6983 culture
Protocol: Inhibitors. Gö6983 was purchased from three different companies (Sigma, St. Louis, Mo.; EMD Chemicals Inc.; and Tocris Biosciences) for validation. In all experiments except the concentration profile, Gö6983 was used at 5 μM final concentration. […] Rottlerin (0.1-5 μM), and RO-318425 (0.1-5 μM) were purchased from EMD Chemicals. Jak Inhibitor I (10 μM), PD0325901 (1 μM) and AKT inhibitor IX (10 μM) were from Calbiochem and CHIR99021 (3 μM) was purchased from Stemgent.
(§1) E14 ES Cell Cultures. Cells were grown in ES-IMDM media (Lonza, Walkersville, Md.) in a feeder-free condition. ES-IMDM was supplemented with 15% serum, 10^5 U/100 ml of LIF (ESGRO, Millipore, Calif.) and 0.0124% monothioglycerol (MTG; Sigma Aldrich). Cells were grown for 3-5 days with change of medium every day. For inducing differentiation in monolayer culture and to determine the effect of Gö6983 in preventing differentiation, E14 cells were cultured on gelatin-coated plastics for 8 days without LIF. Details of experiments performed at clonal-density are described herein. To maintain E14 cells with Gö6983, serum supplemented ES-IMDM was used in the presence of 5 μM Gö6983 and was passed after every 3-5 days. […]

p90Rsk1 (Rsk1) = assay: Phosphorylation of p90Rsk1; type: cell-based, mouse; settings: added to Gö6983-treated cells
Protocol: Western Blot Analysis. Whole cell lysates were prepared in SDS-gel loading buffer and resolved by 10% PAGE. The antibodies used for this study included β-actin Clone AC-15 from Sigma; p-STAT3 (Tyr705), p-p44/42 MAPK (tyr202/tyr204), p44/42 MAPK, GSK3β, Phospho Akt (Ser473), Akt, p-NFκβ p65 (Ser536), c-Myc, p-c-Myc (Thr58/Ser62), p-p90RSK (Thr359/Ser363), RSK1, Suz12 (D39F6), and Ezh2 (AC22) from Cell Signaling Technology; STAT3 (C-20), Oct-4 (C-10), Nanog (M-149), PKC α (C-20), PKC βI (C-16), PKC βII (C-18), PKC γ (C-19), PKC δ (C-20), PKC ζ (c-20), p-PKC ζ (Thr 410)-R, p-NFκβ p65 (ser311), and RelA (p65) from Santa Cruz Biotechnology; p-LGL1/LGL2 (S650/S654), SSEA4and H3K4Me3 from Abcam; LGL2 (M06), clone 4G2 from Abnova; β-Catenin from BD Transduction Laboratories, and H3K27Me3 and H3K9Me3 from Millipore.

ERK1/2 = ERK1/2 phosphorylation in ES cells; type: cell-based, mouse; settings: combination of Gö6983 and PD0325901
Protocol: as §1, with “days. For all assays involving elucidation of different signaling mechanism responsible for maintenance of pluripotency, cells from a ˜70% confluent ES culture plate were washed two times with 1× phosphate-buffered saline (PBS), trypsinized and plated on a 6-well tissue culture plate and treated with or without LIF or Gö6983 or different inhibitors for ˜10 hours followed by preparation of protein lysates and RNA. The PKCζ knocked-down E14 cells that were generated in this study were maintained in serum supplemented ES-IMDM on gelatin-coated plates in the absence of Gö6983 or LIF or any other inhibitor and passed after 3-5 days.” for “days.”

E14 ES cells [2] = assay: ES cell culture in the absence of LIF (undifferentiated state, marker expression); type: cell-based, mouse; settings: mouse ES cells, without LIF
Protocol: (§2) E14 ES Cell Cultures. Cells were grown in ES-IMDM media (Lonza, Walkersville, Md.) in a feeder-free condition. ES-IMDM was supplemented with 15% serum, 10^5 U/100 ml of LIF (ESGRO, Millipore, Calif.) and 0.0124% monothioglycerol (MTG; Sigma Aldrich). Cells were grown for 3-5 days with change of medium every day. For inducing differentiation in monolayer culture and to determine the effect of Gö6983 in preventing differentiation, E14 cells were cultured on gelatin-coated plastics for 8 days without LIF. Details of experiments performed at clonal-density are described herein. To maintain E14 cells with Gö6983, serum supplemented ES-IMDM was used in the presence of 5 μM Gö6983 and was passed after every 3-5 days. For all assays involving elucidation of different signaling mechanism responsible for maintenance of pluripotency, cells from a ˜70% confluent ES culture plate were washed two times with 1× phosphate-buffered saline (PBS), trypsinized and plated on a 6-well tissue culture plate and treated with or without LIF or Gö6983 or different inhibitors for ˜10 hours followed by preparation of protein lysates and RNA. The PKCζ knocked-down E14 cells that were generated in this study were maintained in serum supplemented ES-IMDM on gelatin-coated plates in the absence of Gö6983 or LIF or any other inhibitor and passed after 3-5 days. For the experiments herein, cells were continuously cultured at least for 5 consecutive passages (>18 days) on gelatin-coated plates without significant differentiation.
Quantitative RT-PCR Analysis. RNA was extracted from different cell samples with TRIZOL reagent (Invitrogen). cDNA was prepared by annealing RNA (1 μg) with 250 ng of a 5:1 mixture of random and oligo(dT) primers heated at 68° C. for 10 minutes. This was followed by incubation with Moloney murine leukemia virus reverse transcriptase (50 units) (Invitrogen, Carlsbad, Calif.) combined with 10 mM DTT, RNasin (PROMEGA, Madison, Wis.), and 0.5 mM dNTPs at 42° C. for 1 hour. Reactions were diluted to a final volume of 100 μl and heat inactivated at 97° C. for 5 minutes. Twenty μl PCR reactions contained 2 μl cDNA, 10 μl SYBR Green Master Mix (Applied Biosystems, Foster City, Calif.) and corresponding primer sets. Relative expression levels were determined from a standard curve of serial dilutions of proliferating ES cell cDNA samples and were normalized to the expression of glyceraldehyde-3-phosphate dehydrogenase (GAPDH). At least three independent experiments were done for each set of data.
Immunostaining. Immunostaining of Oct4, and Nanog expression was performed using standard protocols. Briefly, ES cells were fixed in 4% paraformaldehyde/4% sucrose, permeabilized with 0.1% TRITON X 100 (Sigma). Cells were blocked by adding 1% fish gelatin (Sigma, St. Louis, Mo.) and incubated overnight at 4° C. with 200 μl of primary antibodies. Fluorescent-conjugated secondary antibodies (ALEXA FLUOR 488, and ALEXA FLUOR 568, Molecular Probes, Invitrogen) were used at 1:250 dilutions to visualize cells. Images were captured using a LEICA fluorescence microscope.

Akt = Akt phosphorylation in mESCs; type: cell-based, mouse
Protocol: as §2, with “For the experiments herein, cells were continuously cultured at least for 5 consecutive passages (>18 days) on gelatin-coated plates without significant differentiation.” left out

PKC β = tested on: PKC β; parameters: key: X^1: PKC β1; X^2: PKC β2; settings: X = isoform inhibited; superscript 1 PKC β1, 2 PKC β2; cited from earlier work

## Cc1c[nH]c(-c2cnc(NCCNc3ccc(C#N)cn3)nc2-c2ccc(Cl)cc2Cl)n1 [CHIR99021]
c-Myc
  c-Myc phosphorylation: abolished

## N#CC(=C(/N)Sc1ccccc1N)/C(C#N)=C(/N)Sc1ccccc1N [U0216]
E14 ES cells [1]
  differentiation of ES cells on collagen IV: failed to block differentiation

## Jak-Inhibitor-I
mESCs
  effect of added inhibitor on Gö6983-mediated inhibition of mESC differentiation / maintenance of self-renewal: ineffective

## O=C(NOC[C@H](O)CO)c1ccc(F)c(F)c1Nc1ccc(I)cc1F [PD0325901]
p90Rsk1 (Rsk1)
  Rsk1 phosphorylation: abolished
ERK1/2
  ERK1/2 phosphorylation: almost completely inhibited

## CC(=O)c1c(O)c(C)c(O)c(Cc2c(O)c3c(c(C(=O)/C=C/c4ccccc4)c2O)OC(C)(C)C=C3)c1O [Rottlerin]
E14 ES cells [2]
  ES cell differentiation in the absence of LIF: could not prevent differentiation

## LIF: cytokine leukemia inhibitory factor, activates STAT3
Akt
  Akt phosphorylation: induced

## CN(C)CCCn1cc(C2=C(c3c[nH]c4ccccc34)C(=O)NC2=O)c2ccccc21 [Bisindolylmaleimide I]
E14 ES cells [2]
  ES cell differentiation in the absence of LIF: able to inhibit ES cell differentiation, albeit at a lower efficiency than Gö6983
PKC β
  Isoform Specificity β: X^1

## Cn1c2ccccc2c2c3c(c4c5ccccc5n(CCC#N)c4c21)CNC3=O [Gö6976]
E14 ES cells [2]
  ES cell differentiation in the absence of LIF: could not prevent differentiation
PKC β
  Isoform Specificity β: X^2

## Cn1cc(C2=C(c3c4n(c5ccccc35)CCC(CN)C4)C(=O)NC2=O)c2ccccc21 (stereo not drawn) [Ro-31-8425]
E14 ES cells [2]
  ES cell differentiation in the absence of LIF: could not prevent differentiation
